Measured values as given in patent US8853418B2, “Cyclopentylpyrazoles as N-type calcium channel blockers” (Janssen Pharmaceutica NV, priority 2012, dated 2014).
Like-named read-outs stand apart in the source and are kept apart here.

Tests used:
[1] = target: N-type calcium channel (α1B (Cav2.2), β3 and α2δ subunits) (Homo sapiens, UniProt Q00975); experiment: Functional Assay: Antagonism of N-Type Calcium Channel (FDSS calcium mobilization, KCl depolarization); assay type: cell-based; conditions: for IC50: HEK cell line, 50 mM KCl depolarization, six-point concentration-response, read-out: FDSS IC50
Chain of N-type calcium channel (α1B (Cav2.2), β3 and α2δ subunits) (Q00975 whole entry): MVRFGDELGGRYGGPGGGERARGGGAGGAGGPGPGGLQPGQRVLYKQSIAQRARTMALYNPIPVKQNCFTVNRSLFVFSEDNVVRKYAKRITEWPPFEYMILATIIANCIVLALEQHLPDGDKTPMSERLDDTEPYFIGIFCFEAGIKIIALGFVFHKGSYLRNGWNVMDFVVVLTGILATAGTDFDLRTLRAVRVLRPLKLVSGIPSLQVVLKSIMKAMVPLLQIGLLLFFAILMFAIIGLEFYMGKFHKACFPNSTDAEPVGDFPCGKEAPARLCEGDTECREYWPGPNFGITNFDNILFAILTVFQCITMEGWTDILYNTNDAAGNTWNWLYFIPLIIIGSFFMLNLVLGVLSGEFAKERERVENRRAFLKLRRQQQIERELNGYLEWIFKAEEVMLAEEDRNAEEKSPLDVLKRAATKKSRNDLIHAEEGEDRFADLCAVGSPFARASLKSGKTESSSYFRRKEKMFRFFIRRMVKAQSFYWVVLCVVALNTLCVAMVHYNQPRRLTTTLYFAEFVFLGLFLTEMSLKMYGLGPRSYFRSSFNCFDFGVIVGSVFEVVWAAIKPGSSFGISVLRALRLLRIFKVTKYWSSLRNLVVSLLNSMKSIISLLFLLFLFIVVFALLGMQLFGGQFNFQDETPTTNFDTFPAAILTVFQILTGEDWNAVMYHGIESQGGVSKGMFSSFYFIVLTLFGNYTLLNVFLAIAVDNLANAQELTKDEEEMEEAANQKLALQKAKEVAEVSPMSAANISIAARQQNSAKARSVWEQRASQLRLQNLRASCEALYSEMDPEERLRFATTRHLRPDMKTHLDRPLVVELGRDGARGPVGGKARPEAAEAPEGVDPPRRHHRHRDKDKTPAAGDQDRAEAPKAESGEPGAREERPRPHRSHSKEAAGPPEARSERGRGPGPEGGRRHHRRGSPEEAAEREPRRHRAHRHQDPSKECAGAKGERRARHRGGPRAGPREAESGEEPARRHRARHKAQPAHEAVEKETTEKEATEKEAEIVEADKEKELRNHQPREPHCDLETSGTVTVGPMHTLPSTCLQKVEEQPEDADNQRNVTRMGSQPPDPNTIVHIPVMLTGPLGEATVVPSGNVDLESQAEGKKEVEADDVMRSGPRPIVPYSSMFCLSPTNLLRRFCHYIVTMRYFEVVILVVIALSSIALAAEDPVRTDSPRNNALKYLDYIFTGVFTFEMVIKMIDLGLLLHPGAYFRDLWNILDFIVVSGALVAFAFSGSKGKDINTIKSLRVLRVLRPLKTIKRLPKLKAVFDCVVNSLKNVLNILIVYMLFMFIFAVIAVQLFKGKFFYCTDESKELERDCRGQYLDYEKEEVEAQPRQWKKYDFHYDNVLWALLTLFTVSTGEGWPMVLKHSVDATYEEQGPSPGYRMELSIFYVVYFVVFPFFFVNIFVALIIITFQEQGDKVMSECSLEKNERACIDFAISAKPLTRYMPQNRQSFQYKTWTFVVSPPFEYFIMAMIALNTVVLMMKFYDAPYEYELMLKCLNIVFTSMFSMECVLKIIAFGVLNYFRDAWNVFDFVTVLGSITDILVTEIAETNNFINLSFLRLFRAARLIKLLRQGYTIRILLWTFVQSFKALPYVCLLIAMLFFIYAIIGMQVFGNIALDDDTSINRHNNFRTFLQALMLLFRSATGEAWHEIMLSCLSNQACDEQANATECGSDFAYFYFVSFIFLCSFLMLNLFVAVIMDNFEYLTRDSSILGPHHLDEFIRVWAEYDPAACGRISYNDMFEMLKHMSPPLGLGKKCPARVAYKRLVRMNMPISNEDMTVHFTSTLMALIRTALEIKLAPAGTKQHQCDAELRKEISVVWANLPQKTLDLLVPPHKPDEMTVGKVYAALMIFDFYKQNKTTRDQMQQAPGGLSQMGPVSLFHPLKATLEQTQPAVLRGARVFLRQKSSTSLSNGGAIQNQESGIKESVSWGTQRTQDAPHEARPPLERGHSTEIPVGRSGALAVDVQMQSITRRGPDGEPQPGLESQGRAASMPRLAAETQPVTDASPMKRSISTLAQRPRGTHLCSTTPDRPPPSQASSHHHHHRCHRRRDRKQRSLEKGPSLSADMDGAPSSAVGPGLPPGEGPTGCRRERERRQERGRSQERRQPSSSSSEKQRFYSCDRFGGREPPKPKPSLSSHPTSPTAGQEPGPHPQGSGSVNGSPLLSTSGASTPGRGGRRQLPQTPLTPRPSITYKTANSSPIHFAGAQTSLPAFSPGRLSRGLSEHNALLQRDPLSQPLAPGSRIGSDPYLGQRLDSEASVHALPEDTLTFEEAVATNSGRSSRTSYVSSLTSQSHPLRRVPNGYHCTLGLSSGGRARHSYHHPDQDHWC
Chain of N-type calcium channel (α1B (Cav2.2), β3 and α2δ subunits) (P54284 whole entry partner): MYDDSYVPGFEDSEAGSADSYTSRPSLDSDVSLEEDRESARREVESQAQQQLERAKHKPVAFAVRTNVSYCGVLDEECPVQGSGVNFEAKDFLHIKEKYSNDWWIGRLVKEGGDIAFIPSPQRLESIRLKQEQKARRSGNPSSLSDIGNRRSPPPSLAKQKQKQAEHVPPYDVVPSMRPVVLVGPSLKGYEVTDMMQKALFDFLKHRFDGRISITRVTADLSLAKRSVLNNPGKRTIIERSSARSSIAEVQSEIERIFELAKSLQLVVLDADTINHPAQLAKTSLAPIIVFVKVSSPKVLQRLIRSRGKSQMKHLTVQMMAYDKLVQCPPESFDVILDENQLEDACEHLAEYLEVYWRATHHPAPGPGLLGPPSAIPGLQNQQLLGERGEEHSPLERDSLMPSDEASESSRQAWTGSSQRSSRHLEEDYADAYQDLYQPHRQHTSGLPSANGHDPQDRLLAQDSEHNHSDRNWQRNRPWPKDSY
Chain of N-type calcium channel (α1B (Cav2.2), β3 and α2δ subunits) (P54289 25-946 partner limits assumed): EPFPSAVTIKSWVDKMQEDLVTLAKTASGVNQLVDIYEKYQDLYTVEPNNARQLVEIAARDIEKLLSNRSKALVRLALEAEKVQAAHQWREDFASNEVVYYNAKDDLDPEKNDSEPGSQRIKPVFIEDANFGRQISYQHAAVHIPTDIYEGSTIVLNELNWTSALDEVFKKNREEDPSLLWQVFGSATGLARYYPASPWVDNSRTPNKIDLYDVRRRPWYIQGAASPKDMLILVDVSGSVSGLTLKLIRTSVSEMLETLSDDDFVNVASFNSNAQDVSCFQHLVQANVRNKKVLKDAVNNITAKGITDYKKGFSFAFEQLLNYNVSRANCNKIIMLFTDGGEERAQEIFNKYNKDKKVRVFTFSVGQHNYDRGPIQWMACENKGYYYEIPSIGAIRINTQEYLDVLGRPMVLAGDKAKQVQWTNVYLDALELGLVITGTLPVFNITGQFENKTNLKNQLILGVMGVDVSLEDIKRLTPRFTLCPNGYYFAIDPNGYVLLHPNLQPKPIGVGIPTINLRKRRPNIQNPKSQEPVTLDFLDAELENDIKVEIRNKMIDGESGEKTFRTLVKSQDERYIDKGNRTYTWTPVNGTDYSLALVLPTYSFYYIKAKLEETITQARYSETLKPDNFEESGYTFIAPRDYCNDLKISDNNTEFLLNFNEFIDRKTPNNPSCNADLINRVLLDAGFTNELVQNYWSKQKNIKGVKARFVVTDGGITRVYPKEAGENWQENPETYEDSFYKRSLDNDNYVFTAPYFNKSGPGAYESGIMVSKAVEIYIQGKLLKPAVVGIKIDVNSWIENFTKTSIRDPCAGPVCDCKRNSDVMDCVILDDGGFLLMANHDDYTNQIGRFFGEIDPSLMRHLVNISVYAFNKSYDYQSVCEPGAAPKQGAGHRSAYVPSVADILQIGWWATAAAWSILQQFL
Chain of N-type calcium channel (α1B (Cav2.2), β3 and α2δ subunits) (P54289 947-1103 partner limits assumed): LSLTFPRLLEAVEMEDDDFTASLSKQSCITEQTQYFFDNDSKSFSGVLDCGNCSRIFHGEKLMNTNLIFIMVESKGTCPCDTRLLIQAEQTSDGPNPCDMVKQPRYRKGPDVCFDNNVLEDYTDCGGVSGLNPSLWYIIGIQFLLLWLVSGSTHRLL
Method: A stable cell line (HEK parent) co-expressing the α1B (Cav2.2), β3 and α2δ subunits of the N-type calcium channel subunits was used. These cells were routinely grown as monolayers in low glucose-containing Dulbecco's Modified Eagle Medium supplemented with 10% FBS, 2 mM L-glutamine, 100 I.U./mL penicillin, 100 μg/mL streptomycin, 400 μg/mL G418 and 200 μg/mL Zeocin (split ratio=1:5). Cells were maintained in 5% CO2 at 37° C. Compounds of Formula (I) were prepared as 10 mM stocks in DMSO from neat compound, if available. Otherwise, the 5 or 10 mM DMSO stock solutions provided in-house were used.
Calcium mobilization responses to KCl depolarization were evaluated by measuring the intensity of calcium-mediated fluorescent signal in the presence of BD Calcium Assay Dye (BD Biosciences, Franklin Lakes, N.J., U.S.A.), utilizing a Functional Drug Screening System (FDSS) by Hamamatsu Corporation (Bridgewater, N.J. U.S.A.).
Twenty-four hr prior to assay, cells were seeded in clear-base poly-D-lysine-coated 384-well plates (BD Biosciences) at a density of 5,000 cells per well in culture medium and grown overnight in 5% CO2 at 37° C. On the day of assay, growth media were removed, and cells were loaded with BD calcium assay dye (BD Biosciences) for 35 min at 37° C. under 5% CO2 and then for 25 min at room temp. Utilizing the FDSS, cells were exposed to representative compounds of Formula (I) at varying concentrations, and intracellular calcium was measured for 5 min prior to the addition of 50 mM KCl for an additional 3 min of measurement.
Calculations and Formulas
IC50 values for representative compounds of Formula (I) were determined from six-point concentration-response experiments and represent the concentration of said compound required to inhibit 50% of the maximal response. Maximal fluorescence intensity (FI) achieved upon addition of 50 mM KCl was exported from the FDSS software and further analyzed using GraphPad Prism 3.02 (Graph Pad Software Inc., San Diego, Calif., U.S.A.). Data were normalized to the maximum average counts from quadruplicate wells for each condition in the presence of 50 mM KCl and to the minimum average counts in the presence of buffer. Theoretical curves were generated using nonlinear regression curve-fitting analysis of either sigmoidal concentration-response or sigmoidal concentration-response (variable slope), and the IC50 values with the best-fit curve determined by GraphPad Prism were reported.

[2] = target: N-type calcium channel (Homo sapiens, UniProt Q00975); experiment: Automated Electrophysiology Assay (QPatch-HT whole-cell patch clamp; low- and high-frequency stimulation); assay type: cell-based
Chain of N-type calcium channel (Q00975 whole entry): as the sequence (Q00975 whole entry) above
Chain of N-type calcium channel (P54284 whole entry partner): as the sequence (P54284 whole entry partner) above
Chain of N-type calcium channel (P54289 25-946 partner limits assumed): as the sequence (P54289 25-946 partner limits assumed) above
Chain of N-type calcium channel (P54289 947-1103 partner limits assumed): as the sequence (P54289 947-1103 partner limits assumed) above

[3] = high-frequency stimulation (15th pulse), read-out: QPatch at High Frequency % Inhibition
[4] = low frequency, read-out: QPatch at Low Frequency % Inhibition

| Compound | IC50 [1] [nM] | inhibition at 1 µM [2, 3] [%] | inhibition at 1 µM [2, 4] [%] | inhibition at 0.33 µM [1] [%] | further results |
| --- | --- | --- | --- | --- | --- |
| COc1ccccc1-n1nc2c(c1-c1ccc(Cl)cc1)CC(CCOC(=O)N1CCOCC1)C2 (stereo not drawn) [Compound 2, 2-[3-(4-chlorophenyl)-2-(2-methoxyphenyl)-2,4,5,6-tetrahydrocyclopenta[c]pyrazol-5-yl]ethyl morpholine-4-carboxylate] | 33 | 69 | 76 | – | inhibition at 0.25 µM [2, 3]: 58%; inhibition at 5 µM [2, 3]: 97%; inhibition at 0.25 µM [2, 4]: 54%; inhibition at 5 µM [2, 4]: 90% |
| COc1ccccc1-n1nc2c(c1-c1ccc(Cl)cc1)CC(CCOC(=O)N(C)C)C2 (stereo not drawn) [Compound 3, 2-[3-(4-chlorophenyl)-2-(2-methoxyphenyl)-2,4,5,6-tetrahydrocyclopenta[c]pyrazol-5-yl]ethyl dimethylcarbamate] | 26 | 76 | 69 | – | inhibition at 0.25 µM [2, 3]: 57%; inhibition at 5 µM [2, 3]: 88%; inhibition at 0.25 µM [2, 4]: 35%; inhibition at 5 µM [2, 4]: 93% |
| CCOC(=O)C1Cc2nn(-c3ccccc3OC)c(-c3ccc(Cl)cc3)c2C1 (stereo not drawn) [Compound 5, ethyl 3-(4-chlorophenyl)-2-(2-methoxyphenyl)-2,4,5,6-tetrahydrocyclopenta[c]pyrazole-5-carboxylate] | 43 | – | – | – | inhibition at 5 µM [2, 3]: 85%; inhibition at 5 µM [2, 4]: 82% |
| COc1ccccc1-n1nc2c(c1-c1ccc(Cl)cc1)CC(CNS(C)(=O)=O)C2 (stereo not drawn) [Compound 8, N-{[3-(4-chlorophenyl)-2-(2-methoxyphenyl)-2,4,5,6-tetrahydrocyclopenta[c]pyrazol-5-yl]methyl}methanesulfonamide] | 55 | 57 | 62 | 96 | inhibition at 0.25 µM [2, 3]: -12%; inhibition at 0.25 µM [2, 4]: -9% |
| COc1ccccc1-n1nc2c(c1-c1ccc(Cl)cc1)CC(CCNS(C)(=O)=O)C2 (stereo not drawn) [Compound 11, N-{2-[3-(4-chlorophenyl)-2-(2-methoxyphenyl)-2,4,5,6-tetrahydrocyclopenta[c]pyrazol-5-yl]ethyl}methanesulfonamide] | 73 | 28 | 29 | 99 | – |
| COc1ccccc1-n1nc2c(c1-c1ccc(Cl)cc1)CC(CCNC(C)=O)C2 (stereo not drawn) [Compound 12, N-{2-[3-(4-chlorophenyl)-2-(2-methoxyphenyl)-2,4,5,6-tetrahydrocyclopenta[c]pyrazol-5-yl]ethyl}acetamide] | 70 | 26 | 15 | – | – |
| COc1ccccc1-n1nc2c(c1-c1ccc(Cl)cc1)CC(CCNC(=O)OC(C)(C)C)C2 (stereo not drawn) [Compound 13, tert-butyl{2-[3-(4-chlorophenyl)-2-(2-methoxyphenyl)-2,4,5,6-tetrahydrocyclopenta[c]pyrazol-5-yl]ethyl}carbamate] | 38 | 67 | 42 | – | – |
| CCc1ccccc1-n1nc2c(c1-c1ccc(Cl)cc1)CC(CNC(=O)OC(C)(C)C)C2 (stereo not drawn) [Compound 16, tert-butyl{[3-(4-chlorophenyl)-2-(2-ethylphenyl)-2,4,5,6-tetrahydrocyclopenta[c]pyrazol-5-yl]methyl}carbamate] | 130 | 43 | 19 | – | – |
| COc1ccccc1-n1nc2c(c1-c1ccc(Cl)s1)CC1(C2)OC(C)(C)C(C)(C)O1 [Compound 121, 3-(5-chlorothiophen-2-yl)-2-(2-methoxyphenyl)-4′,4′,5′,5′-tetramethyl-2,6-dihydro-4H-spiro[cyclopenta[c]pyrazole-5,2′-[1,3]dioxolane]] | 30 | – | – | 86 | – |
| COc1ccccc1-n1nc2c(c1-c1ccc(Cl)cc1)CC(N1CCCC1)C2 (stereo not drawn) [Compound 122, 3-(4-chlorophenyl)-2-(2-methoxyphenyl)-5-pyrrolidin-1-yl-2,4,5,6-tetrahydrocyclopenta[c]pyrazole] | – | – | – | 33 | – |

More lines, main results first:

| IC50 [1] [nM] | inhibition at 1 µM [2, 3] [%] | inhibition at 1 µM [2, 4] [%] | inhibition at 0.33 µM [1] [%] | Compound | further results |
| --- | --- | --- | --- | --- | --- |
| 81 | – | – | 70 | COC(=O)c1cn([C@@H]2Cc3nn(-c4ccccc4OC)c(-c4ccc(C#N)cc4)c3C2)nn1 [Compound 125, methyl 1-[(5S)-3-(4-cyanophenyl)-2-(2-methoxyphenyl)-2,4,5,6-tetrahydrocyclopenta[c]pyrazol-5-yl]-1H-1,2,3-triazole-4-carboxylate] | – |
| – | – | – | 33 | COc1ccccc1-n1nc2c(c1-c1ccc(C#N)cc1)C[C@H](n1cc(C(C)(C)O)nn1)C2 [Compound 126, 4-[(5S)-5-[4-(1-hydroxy-1-methylethyl)-1H-1,2,3-triazol-1-yl]-2-(2-methoxyphenyl)-2,4,5,6-tetrahydrocyclopenta[c]pyrazol-3-yl]benzonitrile] | – |
| 170 | – | – | 59 | COc1ccccc1-n1nc2c(c1-c1ccc(C#N)cc1)C[C@H](n1cc(COC(C)=O)nn1)C2 [Compound 128, {1-[(5S)-3-(4-cyanophenyl)-2-(2-methoxyphenyl)-2,4,5,6-tetrahydrocyclopenta[c]pyrazol-5-yl]-1H-1,2,3-triazol-4-yl}methyl acetate] | – |
| – | – | – | 47 | COCc1cn([C@@H]2Cc3nn(-c4ccccc4OC)c(-c4ccc(C#N)cc4)c3C2)nn1 [Compound 129, 4-[(5S)-5-[4-(methoxymethyl)-1H-1,2,3-triazol-1-yl]-2-(2-methoxyphenyl)-2,4,5,6-tetrahydrocyclopenta[c]pyrazol-3-yl]benzonitrile] | – |
| 105 | – | – | 67 | COc1ccccc1-n1nc2c(c1-c1ccc(C#N)cc1)C[C@H](n1cnc(C)c1C)C2 [Compound 131, 4-[(5S)-5-(4,5-dimethyl-1H-imidazol-1-yl)-2-(2-methoxyphenyl)-2,4,5,6-tetrahydrocyclopenta[c]pyrazol-3-yl]benzonitrile] | – |
| – | – | – | 29 | COc1ccccc1-n1nc2c(c1-c1ccc(C#N)cc1)C[C@H](n1c(C)nc(C)c1C)C2 [Compound 132, 4-[(5S)-2-(2-methoxyphenyl)-5-(2,4,5-trimethyl-1H-imidazol-1-yl)-2,4,5,6-tetrahydrocyclopenta[c]pyrazol-3-yl]benzonitrile] | – |
| – | – | – | 35 | CCc1nc(C)c(C)n1[C@@H]1Cc2nn(-c3ccccc3OC)c(-c3ccc(C#N)cc3)c2C1 [Compound 133, 4-[(5S)-5-(2-ethyl-4,5-dimethyl-1H-imidazol-1-yl)-2-(2-methoxyphenyl)-2,4,5,6-tetrahydrocyclopenta[c]pyrazol-3-yl]benzonitrile] | – |
| 200 | – | – | 50 | CCc1nccn1[C@@H]1Cc2nn(-c3ccccc3OC)c(-c3ccc(C#N)cc3)c2C1 [Compound 134, 4-[(5S)-5-(2-ethyl-1H-imidazol-1-yl)-2-(2-methoxyphenyl)-2,4,5,6-tetrahydrocyclopenta[c]pyrazol-3-yl]benzonitrile] | – |
| – | – | – | 44 | COc1ccccc1-n1nc2c(c1-c1ccc(C#N)cc1)C[C@H](n1ccnc1C)C2 [Compound 135, 4-[(5S)-2-(2-methoxyphenyl)-5-(2-methyl-1H-imidazol-1-yl)-2,4,5,6-tetrahydrocyclopenta[c]pyrazol-3-yl]benzonitrile] | – |
| 16 | – | – | 89 | CCc1nnn([C@@H]2Cc3nn(-c4ccccc4OC)c(-c4ccc(C#N)cc4)c3C2)c1CC [Compound 136, 4-[(5S)-5-(4,5-diethyl-1H-1,2,3-triazol-1-yl)-2-(2-methoxyphenyl)-2,4,5,6-tetrahydrocyclopenta[c]pyrazol-3-yl]benzonitrile] | – |
| – | – | – | 49 | CCc1nc(CC)n([C@@H]2Cc3nn(-c4ccccc4OC)c(-c4ccc(C#N)cc4)c3C2)c1CC [Compound 137, 4-[(5S)-2-(2-methoxyphenyl)-5-(2,4,5-triethyl-1H-imidazol-1-yl)-2,4,5,6-tetrahydrocyclopenta[c]pyrazol-3-yl]benzonitrile] | – |
| 320 | – | – | 63 | CCc1nc(C)n([C@@H]2Cc3nn(-c4ccccc4OC)c(-c4ccc(C#N)cc4)c3C2)c1CC [Compound 138, 4-[(5S)-5-(4,5-diethyl-2-methyl-1H-imidazol-1-yl)-2-(2-methoxyphenyl)-2,4,5,6-tetrahydrocyclopenta[c]pyrazol-3-yl]benzonitrile] | – |
